{"source": "paper PMC5559328", "about": "(Clinical cancer research : an official journal of the …, 2017)", "key": {"[1]": {"system": "patients with advanced solid tumors", "parameters": "species or system human", "conditions": "in vivo"}, "[2]": {"conditions": "cited from earlier work"}, "[3]": {"target": "SK2", "conditions": "ref [17], [21], cited from earlier work"}, "[4]": {"system": "plasma S1P", "conditions": "at therapeutically efficacious drug doses; ref [34]; cited from earlier work"}, "[5]": {"experiment": "Plasma drug exposure of ABC294640", "assay_type": "in vivo, human", "conditions": "for Trough drug level: Day 28 prior to drug administration; for AUC(0-inf) / AUC(0-t): oral"}, "[6]": {"system": "plasma S1P and dihydroC16-ceramide", "experiment": "Plasma sphingolipid pharmacodynamics", "assay_type": "in vivo, human"}, "[7]": {"system": "tumors", "conditions": "mouse models; ref [21]; cited from earlier work"}, "[8]": {"conditions": "250 and 500 mg treatment groups"}}, "note": "Structures can show the parent of a compound that is named as a salt. Where two headings read alike, the source gives them in different places."}
{"compound": "O=C(NCc1ccncc1)C12CC3CC(C1)CC(c1ccc(Cl)cc1)(C3)C2", "note": "[ABC294640, 4-pyridinylmethyl-3-(4-chlorophenyl)adamantinecarboxamide, hydrochloride salt]", "values": [{"measurement": "Patients with psychiatric disorders", "setting": "[1]; human", "value": 2, "unit": "patients"}, {"measurement": "Patients with treatment-related nervous system disorders", "setting": "[1]; human", "value": 6, "unit": "patients"}, {"measurement": "Fatigue (treatment-related adverse event)", "setting": "[1]; human, 28 day", "value": "0 n (%)"}, {"measurement": "Creatinine Increase (treatment-related adverse event)", "setting": "[1]; human, 28 days", "value": "0 n (%)"}, {"measurement": "Fatigue (treatment-related adverse event)", "setting": "[1]; human, 28 days", "value": "5 (24) n (%)"}, {"measurement": "Hyperbilirubinemia (treatment-related adverse event)", "setting": "[1]; human, 28 days", "value": "0 n (%)"}, {"measurement": "Vision Change (treatment-related adverse event)", "setting": "[1]; human, 28 days", "value": "0 n (%)"}, {"measurement": "Recommended Phase II Dose", "setting": "[1]; human, po, 28 day cycles, continuous", "value": 500, "unit": "mg bid"}, {"measurement": "Tolerability of dose level", "setting": "[1]", "value": "not to be tolerable"}, {"measurement": "half-life", "setting": "[2]; across several species, extensive preclinical work", "value": "approximately 4 hours"}, {"measurement": "Half-life predicted by animal data", "setting": "[2]; animal data", "value": "~ 4.5 hours"}, {"measurement": "Ki", "setting": "[3]; read-out: Ki, SK2", "value": 9, "unit": "µM"}, {"measurement": "Ki, SK2", "setting": "[3]", "value": 3.4, "unit": "µg/mL"}, {"measurement": "Mode of SK2 inhibition", "setting": "[3]", "value": "competitive with respect to sphingosine"}, {"measurement": "Reduction of plasma S1P levels", "setting": "[4]", "value": "up to 50%"}, {"measurement": "Trough drug level", "setting": "[5]; 250 mg bid, n=3", "value": "0.29 ± 0.15", "unit": "µg/mL"}, {"measurement": "Trough drug level", "setting": "[5]; 250 mg qd, n=5", "value": "0.20 ± 0.34", "unit": "µg/mL"}, {"measurement": "Ratio AUC0-T at Day 28 to AUCINF at Day 1", "setting": "[5]; 500 mg bid", "value": 1.25}, {"measurement": "Trough drug level", "setting": "[5]; 500 mg bid, n=5", "value": "1.82 ± 0.85", "unit": "µg/mL"}, {"measurement": "Ratio AUC0-T at Day 28 to AUCINF at Day 1", "setting": "[5]; 750 mg bid", "value": 1.85}, {"measurement": "Trough drug level", "setting": "[5]; 750 mg bid, n=1", "value": 4.48, "unit": "µg/mL"}, {"measurement": "AUC(0-inf)", "setting": "[5]; human, plasma, 250 mg", "value": "15200 ± 8230", "unit": "ng·h/mL"}, {"measurement": "AUC(0-t)", "setting": "[5]; human, plasma, 250 mg", "value": "17800 ± 15200", "unit": "ng·h/mL"}, {"measurement": "AUC(0-inf)", "setting": "[5]; human, plasma, 500 mg", "value": "40700 ± 28000", "unit": "ng·h/mL"}, {"measurement": "AUC(0-t)", "setting": "[5]; human, plasma, 500 mg", "value": "50800 ± 11300", "unit": "ng·h/mL"}, {"measurement": "Tmax", "setting": "[5]; human, plasma, po", "value": "1 to 2", "unit": "h"}, {"measurement": "half-life", "setting": "[5]; human, plasma, po", "value": "5 to 15", "unit": "h"}, {"measurement": "Maximum plasma S1P decrease", "setting": "[6]; 250 mg (Days 1 and 28, 250 mg qd with 250 mg bid combined), n=10", "value": "51±6", "unit": "%"}, {"measurement": "Maximum plasma S1P decrease", "setting": "[6]; 500 mg (Days 1 and 28 combined), n=5", "value": "46±9", "unit": "%"}, {"measurement": "Maximum plasma S1P decrease", "setting": "[6]; 750 mg (Days 1 and 28 combined), n=2", "value": "54±14", "unit": "%"}, {"measurement": "Time of maximum elevation of plasma dihydroC16-ceramide", "setting": "[6]; [8]", "value": "8 to 12", "unit": "h"}, {"measurement": "Time of return of plasma dihydroC16-ceramide to baseline", "setting": "[6]; [8]", "value": 24, "unit": "h"}, {"measurement": "Time of minimum plasma S1P level after treatment", "setting": "[6]; patients, all doses", "value": 12, "unit": "h"}, {"measurement": "Time of recovery of plasma S1P to baseline", "setting": "[6]; patients, all doses", "value": "≤ 24", "unit": "h"}, {"measurement": "Dose at which single-agent antitumor activity is typically apparent", "setting": "[7]", "value": "≥ 25", "unit": "mg/kg/day"}]}
